One data set deals with Vero cells. The data set is described as follows: Cytotoxicity by CPE assay in Vero cells. The data set is classed as cell-based. The conditions noted are these: cytotoxicity, Vero cells, 72 h, Reed-Muench method. As to the method:
(§1) The cytotoxicity was evaluated by cytopathic effect (CPE) inhibition assay. Vero cells were seeded into 96-well plates. After cells had been incubated for 24 h at 37 °C in 5% CO2, they were exposed to drugs with two-fold serial dilutions. Untreated Vero cells were used as controls. All cultures were incubated again in 5% CO2 at 37 °C for 72 h. The cells were examined microscopically for the cytotoxicity effects. Then TC50 were calculated by the Reed-Muench method.

For the next data set, the system named is HSV-1 virus. In words: Anti HSV-1 CPE inhibition assay in Vero cells. The conditions noted are these: for IC50: read-out: IC50, antiviral activity against HSV-1 virus; for antiviral activity against HSV-1 (in words): in vitro.
In another data set the test system is MDCK cells. In words: Cytotoxicity against MDCK cells by CPE assay. The data set is classed as cell-based. As to the method: as §1
The procedures for Anti-H3N2 studies and cytotoxicity against MDCK cells in vitro by CPE inhibition assay were similar to Anti HSV-1 studies and cytotoxicity against Vero cells.

The subject of the next data set is influenza virus H3N2. The data set is described as follows: Anti-H3N2 CPE inhibition assay in MDCK cells. The conditions noted are these: for IC50: read-out: IC50, antiviral activity against H3N2 virus; for antiviral activity against influenza virus H3N2 (in words): in vitro.
Data set [1] relates to abdominal capillary permeability. Conditions: cited from earlier work.
The subject of another data set is H1N1. The conditions noted are these: previous study; cited from earlier work.
[2] abbreviates: Human alphaherpesvirus 1, Vero, 72 h.

SMILES strings stand for the structures. Like-named read-outs stand apart in the source and are kept apart here. A value given as a limit tells only on which side of the number the result lay.

Results on five molecules are retold here after PMC3759959, “Design, Synthesis and Antiviral Activity Studies of Schizonepetin Derivatives” (International Journal of Molecular Sciences, 2013).

For the molecule `CC1=C2CC[C@@H](C)C[C@]2(OC(=O)c2cccc(Br)c2)OC1=O` [M31, (6R,7aS)-3,6-Dimethyl-2-Oxo-2,4,5,6,7,7a-Hexahydrobenzofuran-7a-yl 3-Bromobenzoate], the “TC50 (Antiviral activity against HSV-1 virus section)” value with Vero cells was found to be 80.3 µM. Besides, the IC50 with HSV-1 virus (setting [2]) is more than 11.5 µM; in the data set on influenza virus H3N2 (Influenza A virus, H3N2, MDCK), more than 39.1 µM. In addition, the “antiviral activity against HSV-1 (in words)” value with HSV-1 virus (CPE inhibition) is on record as “little effect”. Further, the “TC50 (Antiviral activity against H3N2 virus section)” value with MDCK cells worked out at 80.3 µM. For the same molecule, in the data set with influenza virus H3N2 (CPE inhibition), the “antiviral activity against influenza virus H3N2 (in words)” value is on record as “little effect”.
As for `CC1=C2CC[C@@H](C)C[C@]2(OC(=O)c2ccc(Br)cc2)OC1=O` [M33, (6R,7aS)-3,6-Dimethyl-2-Oxo-2,4,5,6,7,7a-Hexahydrobenzofuran-7a-yl 4-Bromobenzoate], the “TC50 (Antiviral activity against HSV-1 virus section)” value in the data set on Vero cells is 80.3 µM. Besides, the IC50 with HSV-1 virus (setting [2]) was more than 11.5 µM; in the data set on influenza virus H3N2 (Influenza A virus, H3N2, MDCK) it was 13.7 µM. Besides, in the data set with HSV-1 virus (CPE inhibition), the “antiviral activity against HSV-1 (in words)” value is “little effect”. Moreover, in the data set on MDCK cells, the “TC50 (Antiviral activity against H3N2 virus section)” value stood at 71.0 µM. Moreover, in the data set with influenza virus H3N2, the “TI (TC50/IC50), H3N2 virus” value turned out to be 5.2. For the same molecule, the “antiviral activity against influenza virus H3N2 (in words)” value with influenza virus H3N2 (CPE inhibition) is “high antiviral activity”.
With `CC1=C2CC[C@@H](C)C[C@@]2(OC(=O)c2ccccc2Br)OC1=O` [M34, (6R,7aS)-3,6-Dimethyl-2-Oxo-2,4,5,6,7,7a-Hexahydrobenzofuran-7a-yl 2-Bromobenzoate], the “TC50 (Antiviral activity against HSV-1 virus section)” value with Vero cells worked out at 80.3 µM. The IC50 with HSV-1 virus (setting [2]) is 17.1 µM; with influenza virus H3N2 (Influenza A virus, H3N2, MDCK), more than 39.1 µM. Also, the “TI (TC50/IC50), HSV-1 virus” value in the data set on HSV-1 virus (TI = TC50/IC50) stood at 4.7. The “antiviral activity against HSV-1 (in words)” value with HSV-1 virus (CPE inhibition) is reported as “obvious antiviral activity”. Further, the “TC50 (Antiviral activity against H3N2 virus section)” value in the data set with MDCK cells was found to be 71.0 µM. The “antiviral activity against influenza virus H3N2 (in words)” value with influenza virus H3N2 (CPE inhibition) is given as “little effect”.
Turning to `CC1=C2CC[C@@H](C)C[C@@]2(OC(=O)c2ccc(C(F)(F)F)cc2)OC1=O` [M35, (6R,7aS)-3,6-Dimethyl-2-Oxo-2,4,5,6,7,7a-Hexahydrobenzofuran-7a-yl 4-(Trifluoromethyl) Benzoate], the “TC50 (Antiviral activity against HSV-1 virus section)” value in the data set with Vero cells is 82.8 µM. Also, the 50% inhibitory concentration (IC50) is more than 11.5 µM in the data set with HSV-1 virus (setting [2]) and 29.7 µM with influenza virus H3N2 (Influenza A virus, H3N2, MDCK). Further, in the data set with MDCK cells, the “TC50 (Antiviral activity against H3N2 virus section)” value stood at 75.4 µM. In the data set with influenza virus H3N2, the “TI (TC50/IC50), H3N2 virus” value turned out to be 2.5. For the same molecule, the “antiviral activity against influenza virus H3N2 (in words)” value with influenza virus H3N2 (CPE inhibition) is “high antiviral activity”.
Turning to `CC1=C2CC[C@@H](C)C[C@@]2(O)OC1=O` [Schizonepetin], in the data set on Vero cells, the “TC50 (Antiviral activity against HSV-1 virus section)” value was determined as 834.2 µM. Also, in data set [1], the “effect on increase of abdominal capillary permeability by HAc” value is “inhibit the increase of abdominal capillary permeability”. In the data set on HSV-1 virus (CPE inhibition), the “antiviral activity against HSV-1 (in words)” value is given as “low antiviral activity”. Further, the IC50 in the data set with HSV-1 virus (CPE inhibition, Vero cells, 30 TCID50, 72 h) is more than 11.5 µM; in the data set with influenza virus H3N2 (CPE inhibition, MDCK cells), more than 39.1 µM. In addition, the “TC50 (Antiviral activity against H3N2 virus section)” value in the data set with MDCK cells amounted to 829.4 µM. The “therapeutic effect on the H1N1 infected mice” value in the data set with H1N1 is given as “obviously positive therapeutic effect”. Further, the “antiviral activity against influenza virus H3N2 (in words)” value with influenza virus H3N2 (CPE inhibition) was “low antiviral activity”.
